For orientation: DC50 means the concentration giving 50% degradation.

The structures appear in SMILES notation.

The first experiment has as its target T1, ER (Homo sapiens, UniProt P03372).
T1 construct: host or cells: T47D and MCF7 human breast cancer cells
T1 sequence (P03372 1-595): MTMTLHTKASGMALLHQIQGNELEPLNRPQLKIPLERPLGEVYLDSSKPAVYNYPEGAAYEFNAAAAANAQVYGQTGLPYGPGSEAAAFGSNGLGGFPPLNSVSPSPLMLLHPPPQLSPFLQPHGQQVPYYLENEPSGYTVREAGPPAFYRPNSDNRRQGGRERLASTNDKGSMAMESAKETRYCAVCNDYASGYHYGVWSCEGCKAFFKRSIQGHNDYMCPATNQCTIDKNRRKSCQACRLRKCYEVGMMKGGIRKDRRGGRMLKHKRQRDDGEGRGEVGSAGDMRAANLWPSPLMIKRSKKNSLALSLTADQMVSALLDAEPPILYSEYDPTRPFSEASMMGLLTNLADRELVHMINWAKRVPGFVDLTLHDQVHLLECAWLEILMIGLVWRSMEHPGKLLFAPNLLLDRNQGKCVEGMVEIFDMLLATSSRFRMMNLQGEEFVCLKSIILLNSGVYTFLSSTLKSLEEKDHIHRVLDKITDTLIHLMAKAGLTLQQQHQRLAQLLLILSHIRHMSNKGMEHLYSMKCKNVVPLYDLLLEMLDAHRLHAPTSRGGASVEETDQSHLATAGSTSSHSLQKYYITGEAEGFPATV
The experiment can be described thus: ER degradation activity, in-cell western blot analysis in T47D cells. It is filed as cell-based. The conditions noted are these: 16 hours, Table A does not say which cell line (T47D or MCF7), read-out: Potency (DC50). A digest of the protocol: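 Read-out is near-infrared fluorescence from an in-cell western, expressed as ER percentage relative to untreated and DMSO controls taken as 100%. T47D breast cancer cells received compound for 16 h in 0.5% DMSO.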
For the compound `C[C@@H]1Cc2c([nH]c3ccccc23)[C@@H](c2c(F)cc(N3CCC4(CCN(CC(=O)N5Cc6cc7c(cc6C5)C(=O)N(C5CCC(=O)NC5=O)C7=O)C4)C3)cc2F)N1CC(F)F` (stereo partly drawn) [E 76, 6-(2-(7-(4-((1R,3R)-2-(2,2-difluoroethyl)-3-methyl-2,3,4,9-tetrahydro-1H-pyrido[3,4-b]indol-1-yl)-3,5-difluorophenyl)-2,7-diazaspiro[4.4]nonan-2-yl)acetyl)-2-(2,6-dioxopiperidin-3-yl)-6,7-dihydropyrrolo[3,4-f]isoindole-1,3(2H,5H)-dione], the DC50 is more than 100 nM. For the compound `C[C@@H]1Cc2c([nH]c3ccccc23)[C@@H](c2c(F)cc(C3CCC(C(=O)N4CCC(N5Cc6cc7c(cc6C5)C(=O)N(C5CCC(=O)NC5=O)C7=O)CC4)CC3)cc2F)N1CC(F)F` (stereo partly drawn) [E246, 6-(1-(4-(4-((1R,3R)-2-(2,2-difluoroethyl)-3-methyl-2,3,4,9-tetrahydro-1H-pyrido[3,4-b]indol-1-yl)-3,5-difluorophenyl)cyclohexane-1-carbonyl)piperidin-4-yl)-2-(2,6-dioxopiperidin-3-yl)-6,7-dihydropyrrolo[3,4-f]isoindole-1,3(2H,5H)-dione], the DC50 was less than 10 nM. Turning to `C[C@@H]1Cc2c([nH]c3ccccc23)[C@@H](c2c(F)cc(CN3CCC4(CC3)CC(CN3Cc5cc6c(cc5C3)C(=O)N(C3CCC(=O)NC3=O)C6=O)C4)cc2F)N1CC(F)F` (stereo partly drawn) [E 370, 6-((7-(4-((1R,3R)-2-(2,2-difluoroethyl)-3-methyl-2,3,4,9-tetrahydro-1H-pyrido[3,4-b]indol-1-yl)-3,5-difluorobenzyl)-7-azaspiro[3.5]nonan-2-yl)methyl)-2-(2,6-dioxopiperidin-3-yl)-6,7-dihydropyrrolo[3,4-f]isoindole-1,3(2H,5H)-dione], the DC50 is more than 100 nM. Take `O=C1CCC(N2C(=O)c3cc4c(cc3C2=O)CN(CC(=O)N2CCC3(CC2)CCN(c2ccc([C@@H]5c6ccc(O)cc6CC[C@@H]5c5ccc(F)cc5)cn2)CC3)C4)C(=O)N1` (mixture of isomers) [E 185, Rac-2-(2,6-dioxopiperidin-3-yl)-6-(2-(9-(5-((1S,2S)-2-(4-fluorophenyl)-6-hydroxy-1,2,3,4-tetrahydronaphthalen-1-yl)pyridin-2-yl)-3,9-diazaspiro[5.5]undecan-3-yl)-2-oxoethyl)-6,7-dihydropyrrolo[3,4-f]isoindole-1,3(2H,5H)-dione]: the DC50 is more than 100 nM. Same read-out and setting: in the case of `C[C@@H]1Cc2c([nH]c3ccccc23)[C@@H](c2c(F)cc(N3CCC(N4CCC(CN5Cc6cc7c(cc6C5)C(=O)N(C5CCC(=O)NC5=O)C7=O)CC4)C3)cc2F)N1CC(F)F` (stereo partly drawn) [E 124, 6-((1-(1-(4-((1R,3R)-2-(2,2-difluoroethyl)-3-methyl-2,3,4,9-tetrahydro-1H-pyrido[3,4-b]indol-1-yl)-3,5-difluorophenyl)pyrrolidin-3-yl)piperidin-4-yl)methyl)-2-(2,6-dioxopiperidin-3-yl)-6,7-dihydropyrrolo[3,4-f]isoindole-1,3(2H,5H)-dione] it was more than 100 nM.

Turning to `O=C1CCC(N2C(=O)c3cc4c(cc3C2=O)CN(CC(=O)N2CC3(CCN(c5ccc(C(=C(CCCl)c6ccccc6)c6ccc(O)cc6)cc5)CC3)C2)C4)C(=O)N1` (stereo not shown) [E 187, 6-(2-(7-(4-(4-chloro-1-(4-hydroxyphenyl)-2-phenylbut-1-en-1-yl)phenyl)-2,7-diazaspiro[3.5]nonan-2-yl)-2-oxoethyl)-2-(2,6-dioxopiperidin-3-yl)-6,7-dihydropyrrolo[3,4-f]isoindole-1,3(2H,5H)-dione], the DC50 lay in the range of 10 to 100 nM.

Still in this experiment, the particulars now being: compounds 16 hours, Table A does not say whether T47D or MCF7, read-out: Potency (DC50).
With `O=C1CCC(N2Cc3cc4c(cc3C2=O)CN(CC2CN(CC3CCN(c5ccc([C@@H]6c7ccc(O)cc7CC[C@@H]6c6ccccc6)cc5)CC3)C2)C4=O)C(=O)N1` (stereo partly drawn) [E 504, 2-(2,6-dioxopiperidin-3-yl)-6-((1-((1-(4-((1R,2S)-6-hydroxy-2-phenyl-1,2,3,4-tetrahydronaphthalen-1-yl)phenyl)piperidin-4-yl)methyl)azetidin-3-yl)methyl)-2,3,6,7-tetrahydropyrrolo[3,4-f]isoindole-1,5-dione], the DC50 was more than 100 nM.

The record behind these values is patent publication US20240190880A1 (THE REGENTS OF THE UNIVERSITY OF MICHIGAN, priority 2021, published 2024).
